Where a name gives a salt, the structure may show the parent alone. Values belong to the molecule of their own block, whether it stands above or below them.
How the values were obtained:
[1] = Effect of 50% methanol on coumarin fluorescence and phenol red absorbance (dye stacking); format: physicochemical
Method: To further investigate the ability of a photon reducing agent to reduce fluorescence of a solution, fluorescence of a dye in the presence of a photon reducing agent was monitored in the presence and absence of methanol.
[…] A 10 μM solution of 6-chloro-7-hydroxy coumarin-3-carboxylate was prepared in 39 mM phosphate buffer pH 7.5 and in a 1:1 mixture of same phosphate buffer and methanol. 1% (vol/vol) of a 100 mM aqueous Phenol Red stock solution was added to the solutions.
The presence of methanol increased fluorescence compared to an all aqueous buffer.

[2] = Absorption maxima of dyes; format: physicochemical; conditions: for Absorption maximum: main value
[3] = Reduction of coumarin fluorescence as a function of path length; conditions: 10 μM coumarin + 1 mM phenol red, capillary
Method: To further investigate the ability of photon reducing agents to reduce fluorescence emitted from a solution, fluorescence emitted from a solution containing a fluorophore in the presence of a photon reducing agent was monitored as a function sample thickness.
A photon reducing agent, phenol red, was tested with a fluorophore, coumarin, as a function of sample thickness (path length). The experiment was conducted using a microscope equipped with epifluorescence. The liquid samples were drawn into low fluorescence capillary tubes of fixed path length (Vitro Dynamics, Rockaway N.J.) as indicated in the graphs. The following samples were evaluated:
1) 10 μM coumarin (diamonds)
2) 10 μM coumarin+1 mM phenol red (squares)
3) 10 μM coumarin+5% (vol/vol) Schilling Red (triangles).
The samples were excited using a 405/20 filter via a 425 dichroic reflector through a 20× objective (Zeiss 20×Fluar). Emitted light was filtered through a 460/50 filter and detected by an intensified CCD camera (Stanford Photonics, Menlo Park, Calif.). The detector output was converted to a 512×512 pixel eight-bit digital image. The data reflect the average intensity within a 20×20 pixel area within the capillary. The background intensity of the field was subtracted from all values.

[4] = Reduction of front face fluorescence of a coumarin solution by 1 mM phenol red; conditions: 0.5 μM coumarin, phosphate buffer pH 7.5 / 50% methanol
Method: To investigate the ability of a photon reducing agent to reduce fluorescence of a solution, emission of a fluorophore from a sample was monitored in the presence and absence of a photon reducing agent.
Fluorescence from a solution of a blue fluorescent dye, 6-chloro-7-hydroxy coumarin 3-carboxylate, was determined in the presence and absence of a 1 mM phenol red as the photon reducing agent. A solution of 0.5 μM 6-chloro-7-hydroxy coumarin-3-carboxylate in solvent containing 50% (vol/vol) aqueous 39 mM phosphate buffer pH 7.5 and 50% (vol/vol) methanol was prepared. After taking a front face fluorescence spectrum of this solution on a Spex Fluorolog 2, 1% (vol/vol) of a 100 mM aqueous Phenol Red stock solution was added and another spectrum taken. Front face fluorescence refers to exciting the sample at a right angle to the sample surface and collecting emitted light (for example, from the excited region or emission region) at 12.5 degrees from such angle of excitation.

[5] = pH 7.15
[6] = Reduction of solution fluorescence using non-dye quenchers and particulates; conditions: 10 μM coumarin, pH 7.5

increase of fluorescence by 50% methanol buffer ([1]; in the absence of a photon reducing agent): about 30%
SMILES: O=C(O)c1cc2cc(Cl)c(O)cc2oc1=O [6-chloro-7-hydroxy coumarin-3-carboxylate]

SMILES: CC(=O)Nc1ccc(N=Nc2c(N)ccc3cc(S(=O)(=O)[O-])cc(O)c23)c(S(=O)(=O)[O-])c1.[Na+].[Na+] [Acid Red 37]
Absorption maximum [2]: 513 nm

decrease of absorbance by 50% methanol buffer ([1]; at the emission wavelength of the coumarin): about 20%
Absorption maximum [2]: 557 nm
Absorption maximum (second value, in parentheses) ([2]; value in parentheses): 423 nm
SMILES: O=S1(=O)OC(c2ccc(O)cc2)(c2ccc(O)cc2)c2ccccc21 [Phenol Red]
attenuation of coumarin fluorescence [3]: significantly attenuated
reduction of front face fluorescence [4]: 70 fold

Absorption maximum [2]: 425 nm
SMILES: O=C(O)c1nn(-c2ccc(S(=O)(=O)O)cc2)c(O)c1N=Nc1ccc(S(=O)(=O)O)cc1 [Tartrazine]

Absorption maximum [2]: 607 nm
SMILES: Cc1cc(-c2ccc(/N=N/c3c(S(=O)(=O)O)cc4cc(S(=O)(=O)O)cc(N)c4c3O)c(C)c2)ccc1/N=N/c1c(S(=O)(=O)O)cc2cc(S(=O)(=O)O)cc(N)c2c1O [Trypan Blue]

SMILES: [Cl][Ni][Cl] [nickel (II) salts, nickel (II) chloride]
concentration at which coumarin fluorescence can be reduced [5]: low millimolar range

SMILES: NCCN(CCN)CCN [tris(2-aminoethyl)amine]
concentration typically required (collisional quenchers) [6]: higher than 100 mM

From US6200762A, “Photon reducing agents and compositions for fluorescence assays” (Aurora Biosciences Corporation, priority 1998, dated 2001)
